Measurements from paper PMC4076210, “Discovery of Novel AKT Inhibitors with Enhanced Anti-Tumor Effects in Combination with the MEK Inhibitor” (PLoS ONE, 2014).
Read-outs that look alike come from different tables or passages of the source.

Legend:
Experiment in all cases: Kinase panel
Type in all cases: biochemical
DDR2(h) = target: T1, DDR2(h) (Homo sapiens, UniProt Q16832)
T1 construct: purchased Millipore KinaseProfiler
T1 sequence (Q16832 22-855): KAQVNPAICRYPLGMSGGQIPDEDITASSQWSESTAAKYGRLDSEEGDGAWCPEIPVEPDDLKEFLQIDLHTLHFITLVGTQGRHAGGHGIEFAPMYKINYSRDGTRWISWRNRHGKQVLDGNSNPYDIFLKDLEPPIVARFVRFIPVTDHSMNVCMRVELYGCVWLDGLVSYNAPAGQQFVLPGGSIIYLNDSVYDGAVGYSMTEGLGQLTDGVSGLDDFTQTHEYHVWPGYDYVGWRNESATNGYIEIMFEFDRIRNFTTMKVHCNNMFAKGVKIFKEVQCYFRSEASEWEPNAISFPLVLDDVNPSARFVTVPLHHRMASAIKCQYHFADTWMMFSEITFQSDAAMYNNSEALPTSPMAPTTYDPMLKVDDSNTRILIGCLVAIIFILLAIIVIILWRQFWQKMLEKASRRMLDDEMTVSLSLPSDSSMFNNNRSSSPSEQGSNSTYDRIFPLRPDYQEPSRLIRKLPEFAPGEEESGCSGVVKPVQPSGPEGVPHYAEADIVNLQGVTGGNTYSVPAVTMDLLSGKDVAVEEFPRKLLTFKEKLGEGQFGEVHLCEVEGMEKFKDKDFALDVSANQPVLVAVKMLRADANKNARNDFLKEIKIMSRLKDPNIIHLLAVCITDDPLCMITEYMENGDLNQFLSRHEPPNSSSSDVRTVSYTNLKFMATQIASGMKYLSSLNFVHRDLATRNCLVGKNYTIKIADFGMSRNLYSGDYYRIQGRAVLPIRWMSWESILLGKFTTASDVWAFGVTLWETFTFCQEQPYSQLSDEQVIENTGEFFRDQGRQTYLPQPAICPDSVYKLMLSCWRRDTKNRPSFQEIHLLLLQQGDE

mTOR/FKBP12(h) = target: T2, mTOR/FKBP12(h) (Homo sapiens, UniProt P42345)
T2 construct: purchased Millipore KinaseProfiler
T2 sequence (P42345 1362-2549 limits assumed): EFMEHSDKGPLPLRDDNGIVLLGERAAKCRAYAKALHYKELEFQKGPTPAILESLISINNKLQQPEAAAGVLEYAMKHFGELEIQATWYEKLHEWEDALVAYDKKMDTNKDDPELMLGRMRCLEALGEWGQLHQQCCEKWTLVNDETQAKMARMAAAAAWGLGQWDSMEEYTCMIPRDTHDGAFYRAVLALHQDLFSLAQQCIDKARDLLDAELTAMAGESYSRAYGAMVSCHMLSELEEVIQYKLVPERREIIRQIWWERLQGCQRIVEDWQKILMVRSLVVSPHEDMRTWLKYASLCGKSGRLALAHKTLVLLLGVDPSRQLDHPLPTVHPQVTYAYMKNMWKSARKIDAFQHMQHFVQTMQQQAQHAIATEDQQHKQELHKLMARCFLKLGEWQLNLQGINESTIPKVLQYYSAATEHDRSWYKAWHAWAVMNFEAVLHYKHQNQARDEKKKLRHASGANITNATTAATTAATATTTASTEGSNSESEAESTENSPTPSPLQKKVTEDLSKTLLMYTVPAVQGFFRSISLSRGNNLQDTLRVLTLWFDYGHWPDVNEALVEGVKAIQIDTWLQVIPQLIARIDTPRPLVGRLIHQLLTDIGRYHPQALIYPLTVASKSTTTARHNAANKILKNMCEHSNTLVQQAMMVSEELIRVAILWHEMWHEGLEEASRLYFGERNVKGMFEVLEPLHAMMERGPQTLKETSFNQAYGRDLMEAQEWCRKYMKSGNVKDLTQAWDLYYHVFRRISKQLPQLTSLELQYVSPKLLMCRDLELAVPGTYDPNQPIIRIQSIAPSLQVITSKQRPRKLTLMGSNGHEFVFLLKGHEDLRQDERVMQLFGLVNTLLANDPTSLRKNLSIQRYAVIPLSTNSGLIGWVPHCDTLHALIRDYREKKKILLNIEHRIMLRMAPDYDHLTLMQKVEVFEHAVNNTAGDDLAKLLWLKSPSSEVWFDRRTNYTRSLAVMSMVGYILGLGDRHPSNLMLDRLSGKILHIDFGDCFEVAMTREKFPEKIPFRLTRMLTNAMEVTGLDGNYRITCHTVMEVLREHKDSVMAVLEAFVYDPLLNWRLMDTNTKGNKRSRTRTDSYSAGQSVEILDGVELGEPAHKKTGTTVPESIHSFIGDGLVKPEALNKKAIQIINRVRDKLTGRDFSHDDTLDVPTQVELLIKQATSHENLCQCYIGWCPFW

p70S6K(h) = target: T3, p70S6K(h) (Homo sapiens, UniProt P23443)
T3 construct: purchased Millipore KinaseProfiler

PKCη(h) = target: T4, PKCη(h) (Homo sapiens, UniProt P24723)
T4 construct: purchased Millipore KinaseProfiler

MEK1(h) = target: T5, MEK1(h) (Homo sapiens, UniProt Q02750)
T5 construct: purchased Millipore KinaseProfiler
T5 sequence (Q02750 whole entry): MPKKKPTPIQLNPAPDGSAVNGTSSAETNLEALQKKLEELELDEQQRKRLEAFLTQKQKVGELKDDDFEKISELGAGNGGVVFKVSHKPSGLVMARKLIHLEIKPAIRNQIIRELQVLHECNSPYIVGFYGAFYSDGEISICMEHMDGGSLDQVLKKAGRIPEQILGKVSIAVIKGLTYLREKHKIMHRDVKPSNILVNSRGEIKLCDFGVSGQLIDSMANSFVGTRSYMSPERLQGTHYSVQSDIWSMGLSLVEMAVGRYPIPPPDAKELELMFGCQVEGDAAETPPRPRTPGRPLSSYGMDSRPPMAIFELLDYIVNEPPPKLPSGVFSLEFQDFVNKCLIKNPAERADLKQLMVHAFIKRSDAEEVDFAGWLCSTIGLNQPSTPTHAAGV

Lck(h) = target: T6, Lck(h) (Homo sapiens, UniProt P06239)
T6 construct: purchased Millipore KinaseProfiler
T6 sequence (P06239 whole entry): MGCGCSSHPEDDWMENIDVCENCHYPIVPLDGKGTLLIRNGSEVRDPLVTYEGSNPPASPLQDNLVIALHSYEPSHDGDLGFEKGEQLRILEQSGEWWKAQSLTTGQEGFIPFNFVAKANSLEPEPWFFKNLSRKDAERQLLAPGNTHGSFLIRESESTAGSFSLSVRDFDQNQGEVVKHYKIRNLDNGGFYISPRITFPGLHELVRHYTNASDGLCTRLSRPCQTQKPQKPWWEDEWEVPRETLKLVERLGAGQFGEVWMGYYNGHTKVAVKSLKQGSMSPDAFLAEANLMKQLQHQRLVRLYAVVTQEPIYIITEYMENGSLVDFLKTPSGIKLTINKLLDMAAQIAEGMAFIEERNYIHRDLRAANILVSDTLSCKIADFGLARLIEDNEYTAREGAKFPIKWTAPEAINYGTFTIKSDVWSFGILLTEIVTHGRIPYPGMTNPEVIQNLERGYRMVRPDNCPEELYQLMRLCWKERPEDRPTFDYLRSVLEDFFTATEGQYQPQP

PKCβII(h) = target: T7, PKCβII(h) (Homo sapiens, UniProt P05771)
T7 construct: purchased Millipore KinaseProfiler
T7 sequence (P05771 1-673 isoform P05771-2): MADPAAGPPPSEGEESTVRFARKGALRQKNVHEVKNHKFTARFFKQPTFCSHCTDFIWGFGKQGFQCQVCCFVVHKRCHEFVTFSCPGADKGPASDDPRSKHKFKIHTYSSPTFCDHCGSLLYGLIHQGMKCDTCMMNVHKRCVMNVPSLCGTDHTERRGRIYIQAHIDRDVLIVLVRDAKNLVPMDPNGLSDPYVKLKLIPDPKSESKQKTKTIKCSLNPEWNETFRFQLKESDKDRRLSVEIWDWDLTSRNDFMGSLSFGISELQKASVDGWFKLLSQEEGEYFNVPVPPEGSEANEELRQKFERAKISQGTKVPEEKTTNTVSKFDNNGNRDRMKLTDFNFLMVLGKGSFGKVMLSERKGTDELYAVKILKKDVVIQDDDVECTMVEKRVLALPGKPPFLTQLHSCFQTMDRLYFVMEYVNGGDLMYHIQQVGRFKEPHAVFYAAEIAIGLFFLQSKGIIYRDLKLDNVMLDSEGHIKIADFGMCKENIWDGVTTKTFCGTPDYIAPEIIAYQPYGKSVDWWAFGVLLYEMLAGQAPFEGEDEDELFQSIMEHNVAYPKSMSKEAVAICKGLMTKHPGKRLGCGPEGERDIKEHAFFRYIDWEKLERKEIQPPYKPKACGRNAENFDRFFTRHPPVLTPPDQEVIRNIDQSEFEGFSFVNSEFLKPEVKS

LOK(h) = target: T8, LOK(h) (Homo sapiens, UniProt O94804)
T8 construct: purchased Millipore KinaseProfiler
T8 sequence (O94804 whole entry): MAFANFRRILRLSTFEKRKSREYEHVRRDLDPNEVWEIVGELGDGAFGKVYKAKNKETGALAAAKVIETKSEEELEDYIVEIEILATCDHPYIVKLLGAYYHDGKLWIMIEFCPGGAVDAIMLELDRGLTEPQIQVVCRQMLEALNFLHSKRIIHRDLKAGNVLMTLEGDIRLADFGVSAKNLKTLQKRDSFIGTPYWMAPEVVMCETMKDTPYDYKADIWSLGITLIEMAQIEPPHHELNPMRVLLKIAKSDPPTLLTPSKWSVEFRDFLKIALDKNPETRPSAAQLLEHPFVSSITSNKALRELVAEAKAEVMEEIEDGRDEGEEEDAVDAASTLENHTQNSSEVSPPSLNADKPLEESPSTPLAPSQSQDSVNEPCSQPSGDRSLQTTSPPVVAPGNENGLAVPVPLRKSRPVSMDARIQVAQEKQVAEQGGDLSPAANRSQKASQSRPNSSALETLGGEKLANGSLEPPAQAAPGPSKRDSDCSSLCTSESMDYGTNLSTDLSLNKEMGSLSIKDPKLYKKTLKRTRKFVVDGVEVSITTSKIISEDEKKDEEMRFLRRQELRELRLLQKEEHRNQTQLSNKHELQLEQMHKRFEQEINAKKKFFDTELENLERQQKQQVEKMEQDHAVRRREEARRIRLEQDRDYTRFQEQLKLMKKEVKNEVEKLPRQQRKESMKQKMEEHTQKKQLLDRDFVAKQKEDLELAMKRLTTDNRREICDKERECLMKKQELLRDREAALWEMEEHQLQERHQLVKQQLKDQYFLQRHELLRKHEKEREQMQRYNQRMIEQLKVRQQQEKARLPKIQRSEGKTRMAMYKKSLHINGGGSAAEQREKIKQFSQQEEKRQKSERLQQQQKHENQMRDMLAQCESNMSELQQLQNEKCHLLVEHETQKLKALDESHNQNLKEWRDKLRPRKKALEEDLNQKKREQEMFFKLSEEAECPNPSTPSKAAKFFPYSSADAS

VRK2(h) = target: T9, VRK2(h) (Homo sapiens, UniProt Q86Y07)
T9 construct: purchased Millipore KinaseProfiler
T9 sequence (Q86Y07 whole entry): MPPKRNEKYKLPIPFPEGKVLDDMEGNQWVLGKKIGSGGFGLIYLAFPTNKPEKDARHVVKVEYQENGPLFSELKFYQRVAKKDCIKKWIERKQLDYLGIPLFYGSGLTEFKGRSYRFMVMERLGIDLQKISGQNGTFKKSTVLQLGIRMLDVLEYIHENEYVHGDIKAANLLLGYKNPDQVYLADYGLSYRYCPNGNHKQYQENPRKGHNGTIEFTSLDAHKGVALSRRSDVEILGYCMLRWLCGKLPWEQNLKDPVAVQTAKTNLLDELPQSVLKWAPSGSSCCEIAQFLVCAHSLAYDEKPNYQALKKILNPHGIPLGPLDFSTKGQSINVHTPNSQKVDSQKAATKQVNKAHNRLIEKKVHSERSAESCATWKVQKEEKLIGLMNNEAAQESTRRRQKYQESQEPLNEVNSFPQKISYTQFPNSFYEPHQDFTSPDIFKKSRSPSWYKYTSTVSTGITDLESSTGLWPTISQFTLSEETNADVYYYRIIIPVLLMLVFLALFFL

Abl (H396P) (h) = target: T10, Abl (H396P) (h) (Homo sapiens, UniProt P00519, H396P)
T10 construct: purchased Millipore KinaseProfiler

Axl(h) = target: T11, Axl(h) (Homo sapiens, UniProt P30530)
T11 construct: purchased Millipore KinaseProfiler
T11 sequence (P30530 26-894): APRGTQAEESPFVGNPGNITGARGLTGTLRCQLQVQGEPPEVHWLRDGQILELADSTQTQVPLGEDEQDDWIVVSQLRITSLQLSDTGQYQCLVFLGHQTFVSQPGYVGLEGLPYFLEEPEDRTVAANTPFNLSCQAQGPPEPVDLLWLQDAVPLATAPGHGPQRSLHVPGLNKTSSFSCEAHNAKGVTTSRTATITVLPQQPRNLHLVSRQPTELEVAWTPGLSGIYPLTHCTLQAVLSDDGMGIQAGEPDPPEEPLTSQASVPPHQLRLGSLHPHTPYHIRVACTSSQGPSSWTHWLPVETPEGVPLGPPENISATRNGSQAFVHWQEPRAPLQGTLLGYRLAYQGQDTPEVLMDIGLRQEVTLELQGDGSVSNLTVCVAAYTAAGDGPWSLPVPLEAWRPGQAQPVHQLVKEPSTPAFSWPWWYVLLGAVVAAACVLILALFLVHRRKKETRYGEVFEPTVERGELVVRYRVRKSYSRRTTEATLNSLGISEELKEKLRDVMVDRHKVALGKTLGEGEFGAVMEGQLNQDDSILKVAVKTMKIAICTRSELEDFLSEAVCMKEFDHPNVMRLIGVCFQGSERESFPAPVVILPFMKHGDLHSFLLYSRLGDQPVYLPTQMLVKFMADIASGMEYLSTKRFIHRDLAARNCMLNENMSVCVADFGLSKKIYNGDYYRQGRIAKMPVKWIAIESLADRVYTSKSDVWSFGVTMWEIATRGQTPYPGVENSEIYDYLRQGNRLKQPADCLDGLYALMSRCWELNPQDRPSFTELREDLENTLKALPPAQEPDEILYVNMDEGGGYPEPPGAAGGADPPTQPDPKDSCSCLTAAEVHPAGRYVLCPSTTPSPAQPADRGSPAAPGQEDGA

TLK2(h) = target: T12, TLK2(h) (Homo sapiens, UniProt Q86UE8)
T12 construct: purchased Millipore KinaseProfiler
T12 sequence (Q86UE8 whole entry): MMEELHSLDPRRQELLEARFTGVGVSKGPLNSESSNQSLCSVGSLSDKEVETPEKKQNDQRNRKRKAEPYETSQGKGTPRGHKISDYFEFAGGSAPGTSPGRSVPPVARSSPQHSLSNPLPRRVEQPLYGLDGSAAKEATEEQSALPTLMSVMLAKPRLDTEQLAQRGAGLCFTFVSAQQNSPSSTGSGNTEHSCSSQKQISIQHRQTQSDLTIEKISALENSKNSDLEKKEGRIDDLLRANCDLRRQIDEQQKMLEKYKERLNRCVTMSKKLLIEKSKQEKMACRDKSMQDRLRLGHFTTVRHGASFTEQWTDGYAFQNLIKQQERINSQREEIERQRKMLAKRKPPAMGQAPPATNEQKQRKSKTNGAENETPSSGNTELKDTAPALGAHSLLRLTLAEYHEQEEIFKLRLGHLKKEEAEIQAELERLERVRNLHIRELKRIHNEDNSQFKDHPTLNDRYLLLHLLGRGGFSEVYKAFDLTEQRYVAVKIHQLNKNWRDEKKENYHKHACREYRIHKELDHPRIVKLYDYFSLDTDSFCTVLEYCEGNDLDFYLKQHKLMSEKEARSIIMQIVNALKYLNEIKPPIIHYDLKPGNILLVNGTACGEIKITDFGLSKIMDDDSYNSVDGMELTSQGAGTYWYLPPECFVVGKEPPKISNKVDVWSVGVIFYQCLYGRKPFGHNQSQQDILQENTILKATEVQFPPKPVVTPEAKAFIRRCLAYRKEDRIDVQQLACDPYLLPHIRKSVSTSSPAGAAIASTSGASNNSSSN

MAPK2(h) = target: T13, MAPK2(h) (Homo sapiens, UniProt P28482)
T13 construct: purchased Millipore KinaseProfiler

How did the inhibition at 0.5 µM (DDR2(h)) turn out when `Cn1ncc(Cl)c1-c1cc(C(=O)N[C@H](CN)Cc2cccc(F)c2)sc1Cl` [GSK2110183] was run?
The inhibition at 0.5 µM was 1%.

What about the inhibition at 10 µM (DDR2(h)) of the same compound?
Its inhibition at 10 µM is 6%.

And the inhibition at 0.5 µM (mTOR/FKBP12(h))?
The inhibition at 0.5 µM was 3%.

And the inhibition at 10 µM (mTOR/FKBP12(h))?
Its inhibition at 10 µM is 5%.

What about the inhibition at 0.5 µM (p70S6K(h)) of the same compound?
Its inhibition at 0.5 µM is 78%.

And the inhibition at 10 µM (p70S6K(h))?
The inhibition at 10 µM was 97%.

And the inhibition at 0.5 µM (PKCη(h))?
The inhibition at 0.5 µM was 78%.

What about the inhibition at 10 µM (PKCη(h)) of the same compound?
Its inhibition at 10 µM is 97%.

And the inhibition at 0.5 µM (MEK1(h))?
The inhibition at 0.5 µM was -1%.

And the inhibition at 10 µM (MEK1(h))?
The inhibition at 10 µM was 24%.

And the inhibition at 0.5 µM (Lck(h))?
The inhibition at 0.5 µM was 7%.

And the inhibition at 10 µM (Lck(h))?
Its inhibition at 10 µM is 35%.

And the inhibition at 0.5 µM (PKCβII(h))?
Its inhibition at 0.5 µM is 2%.

What about the inhibition at 10 µM (PKCβII(h)) of the same compound?
The inhibition at 10 µM was 75%.

And the inhibition at 0.5 µM (LOK(h))?
Its inhibition at 0.5 µM is -9%.

And the inhibition at 10 µM (LOK(h))?
The inhibition at 10 µM was 5%.

And the inhibition at 0.5 µM (VRK2(h))?
The inhibition at 0.5 µM was -8%.

What about the inhibition at 10 µM (VRK2(h)) of the same compound?
The inhibition at 10 µM was -5%.

What about the inhibition at 0.5 µM (Abl (H396P) (h)) of the same compound?
Its inhibition at 0.5 µM is -2%.

What about the inhibition at 10 µM (Abl (H396P) (h)) of the same compound?
The inhibition at 10 µM was 10%.

And the inhibition at 0.5 µM (Axl(h))?
Its inhibition at 0.5 µM is 6%.

And the inhibition at 10 µM (Axl(h))?
Its inhibition at 10 µM is 37%.

What about the inhibition at 0.5 µM (TLK2(h)) of the same compound?
Its inhibition at 0.5 µM is -2%.

And the inhibition at 10 µM (TLK2(h))?
Its inhibition at 10 µM is -1%.

And the inhibition at 0.5 µM (MAPK2(h))?
Its inhibition at 0.5 µM is -2%.

And the inhibition at 10 µM (MAPK2(h))?
Its inhibition at 10 µM is 17%.

How did the inhibition at 0.5 µM (DDR2(h); 0.5 µM, read-out: % Inhibition) turn out when `Cn1ncc(Cl)c1-c1cc(C(=O)N[C@H](CN)Cc2ccc(F)c(F)c2)oc1Cl` [GSK2141795] was run?
The inhibition at 0.5 µM was 3%.

And the inhibition at 10 µM (DDR2(h); 10 µM, read-out: % Inhibition)?
Its inhibition at 10 µM is 12%.

And the inhibition at 0.5 µM (mTOR/FKBP12(h); 0.5 µM, read-out: % Inhibition)?
Its inhibition at 0.5 µM is -19%.

What about the inhibition at 10 µM (mTOR/FKBP12(h); 10 µM, read-out: % Inhibition) of the same compound?
Its inhibition at 10 µM is -21%.

What about the inhibition at 0.5 µM (p70S6K(h); 0.5 µM, read-out: % Inhibition) of the same compound?
Its inhibition at 0.5 µM is 88%.

What about the inhibition at 10 µM (p70S6K(h); 10 µM, read-out: % Inhibition) of the same compound?
Its inhibition at 10 µM is 98%.

And the inhibition at 0.5 µM (PKCη(h); 0.5 µM, read-out: % Inhibition)?
Its inhibition at 0.5 µM is 86%.

What about the inhibition at 10 µM (PKCη(h); 10 µM, read-out: % Inhibition) of the same compound?
The inhibition at 10 µM was 99%.

What about the inhibition at 0.5 µM (MEK1(h); 0.5 µM, read-out: % Inhibition) of the same compound?
Its inhibition at 0.5 µM is 0%.

And the inhibition at 10 µM (MEK1(h); 10 µM, read-out: % Inhibition)?
The inhibition at 10 µM was 26%.

What about the inhibition at 0.5 µM (Lck(h); 0.5 µM, read-out: % Inhibition) of the same compound?
Its inhibition at 0.5 µM is -18%.

What about the inhibition at 10 µM (Lck(h); 10 µM, read-out: % Inhibition) of the same compound?
Its inhibition at 10 µM is 21%.

What about the inhibition at 0.5 µM (PKCβII(h); 0.5 µM, read-out: % Inhibition) of the same compound?
Its inhibition at 0.5 µM is 44%.

What about the inhibition at 10 µM (PKCβII(h); 10 µM, read-out: % Inhibition) of the same compound?
Its inhibition at 10 µM is 91%.

What about the inhibition at 0.5 µM (LOK(h); 0.5 µM, read-out: % Inhibition) of the same compound?
Its inhibition at 0.5 µM is -14%.

What about the inhibition at 10 µM (LOK(h); 10 µM, read-out: % Inhibition) of the same compound?
The inhibition at 10 µM was 11%.

What about the inhibition at 0.5 µM (VRK2(h); 0.5 µM, read-out: % Inhibition) of the same compound?
Its inhibition at 0.5 µM is -15%.

And the inhibition at 10 µM (VRK2(h); 10 µM, read-out: % Inhibition)?
The inhibition at 10 µM was -5%.

What about the inhibition at 0.5 µM (Abl (H396P) (h); 0.5 µM, read-out: % Inhibition) of the same compound?
The inhibition at 0.5 µM was 4%.

And the inhibition at 10 µM (Abl (H396P) (h); 10 µM, read-out: % Inhibition)?
Its inhibition at 10 µM is 1%.

What about the inhibition at 0.5 µM (Axl(h); 0.5 µM, read-out: % Inhibition) of the same compound?
The inhibition at 0.5 µM was -2%.

And the inhibition at 10 µM (Axl(h); 10 µM, read-out: % Inhibition)?
Its inhibition at 10 µM is -6%.

What about the inhibition at 0.5 µM (TLK2(h); 0.5 µM, read-out: % Inhibition) of the same compound?
Its inhibition at 0.5 µM is -11%.

What about the inhibition at 10 µM (TLK2(h); 10 µM, read-out: % Inhibition) of the same compound?
The inhibition at 10 µM was 10%.

And the inhibition at 0.5 µM (MAPK2(h); 0.5 µM, read-out: % Inhibition)?
Its inhibition at 0.5 µM is 11%.

And the inhibition at 10 µM (MAPK2(h); 10 µM, read-out: % Inhibition)?
The inhibition at 10 µM was 49%.
